Results published in US10350271B2, “Lipidated peptides for lowering blood glucose” (USTAV ORGANICKE CHEMIE A BIOCHEMIE AKADEMIE VED CR, V.V.I., priority 2014, dated 2019).
Square brackets hold non-standard residues; d marks the D form. Ends that are not written are not given here. Peptide text beside a SMILES is read from it. * marks the point of attachment. Myristoyl = CCCCCCCCCCCCCC(=O)*; Nle = CCCC[C@H](N)C(=O)O

Tests used:
C57BL/6 mice = experiment: Food intake in fasted mice after SC injection; format: in vivo; details: for Effect on food intake in mice: SC
Procedure: NMRI mice, C57BL/6 mice, and Wistar rats (AnLab, Prague, Czech Republic) were housed in a temperature of 23° C. and a daily cycle of 12 h light and dark (light from 6:00). They were given ad libitum water and a standard chow diet that contained 25, 9 and 66% of calories of protein, fat and carbohydrate respectively. Energy content of the feed was 3.4 kcal/g (St-1, Mlýn Kocanda, Czech Republic). Db/db mice and their controls (C57BL/6 background) were obtained from Taconic (Denmark), housed under the same conditions as described above, and fed by Altromin (Taconic, Denmark). ZDF-Lepr^fa/Crl, diabetic fa/fa male rats were obtained from Charles River (France), housed under same conditions as described above, and fed with a Purina 5008 diet (IPS Product Supplies Limited, UK). All experiments followed the ethical guidelines for animal experiments and the law of the Czech Republic Nr. 246/1992.
In experiments with C57BL/6 mice or Wistar rats, food intake was measured with overnight fasted animals in individual cages. Food was withdrawn 17 hours prior to injection of lipidated analog of prolactin releasing peptide (PrRP); free access to water was maintained. The administration of either saline, PrRP, or lipidated analogs was performed by SC injection at doses of 1-10 mg/kg (which corresponded to a volume of 0.2 ml/mouse and 0.1 ml/100 g weight of rat). Fifteen minutes after the lipidated analog of prolactin releasing peptide (PrRP) administration, the mice were given pre-weighed food. The food was then weighed every 30 minutes for 5-10 hours. The administration of each dose was performed at least twice, and each group of mice consisted of at least 6 mice.

rat PrRP receptor = target: T1, rat PrRP receptor (Rattus norvegicus, UniProt Q64121); experiment: Competitive binding in RC-4B/C rat pituitary cells (125I-rat PrRP31); details: for Binding affinity: RC-4B/C cells, statements referring to Table 2; for % of PrRP31, RC-4B/C rat pituitary cells: affinity relative to PrRP31
T1 construct: host or cells: RC-4B/C rat pituitary cell line
T1 sequence (Q64121 1-370): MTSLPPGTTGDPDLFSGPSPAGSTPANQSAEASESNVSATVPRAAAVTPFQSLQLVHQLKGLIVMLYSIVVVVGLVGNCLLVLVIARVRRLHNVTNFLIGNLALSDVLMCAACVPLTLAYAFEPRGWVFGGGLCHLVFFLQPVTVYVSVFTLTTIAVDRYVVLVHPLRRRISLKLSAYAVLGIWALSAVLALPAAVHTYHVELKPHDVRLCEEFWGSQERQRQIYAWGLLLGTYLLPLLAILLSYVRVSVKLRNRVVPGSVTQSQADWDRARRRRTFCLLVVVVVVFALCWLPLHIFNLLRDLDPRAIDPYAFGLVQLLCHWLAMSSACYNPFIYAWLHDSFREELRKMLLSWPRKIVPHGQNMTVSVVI
How it was run: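 Displacement of rat 125I-PrRP31 ([…]) by test analogs, 10^−11–10^−4 mol·l^−1, on whole RC-4B/C cells, 60 min RT. Bound counts measured by γ-counter in duplicate, ≥3 repeats, analyzed by nonlinear one-site binding regression.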

[1] = target: T2, human PrRP receptor GPR10 (Homo sapiens, UniProt P49683); experiment: Competitive binding in CHO cells transfected with human GPR10 (human 125I-PrRP31); details: affinity relative to PrRP31
T2 construct: host or cells: CHO cells
T2 sequence (P49683 1-370): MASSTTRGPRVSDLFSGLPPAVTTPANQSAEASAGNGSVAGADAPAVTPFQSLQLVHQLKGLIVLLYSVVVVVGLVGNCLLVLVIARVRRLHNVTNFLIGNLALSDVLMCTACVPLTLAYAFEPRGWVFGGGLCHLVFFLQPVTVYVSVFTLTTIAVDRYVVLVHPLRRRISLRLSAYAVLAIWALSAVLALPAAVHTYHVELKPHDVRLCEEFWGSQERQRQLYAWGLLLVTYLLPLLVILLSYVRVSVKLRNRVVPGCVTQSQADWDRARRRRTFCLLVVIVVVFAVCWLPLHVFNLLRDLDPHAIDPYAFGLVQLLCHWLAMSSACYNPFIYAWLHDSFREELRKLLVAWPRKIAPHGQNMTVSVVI
How it was run: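 Values from one-site nonlinear regression of displacement curves: analogs (final 10^-11 to 10^-4 mol·l^-1) competed with 125I-PrRP31 (final 5×10^-11 mol·l^-1) on adherent human GPR10 CHO cells. Binding ran 1 h at room temperature, pH 7.4 buffer with NaCl, MgCl2, CaCl2, glucose, BSA; cell-bound radioactivity counted after NaOH lysis.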

Compound	Binding affinity (rat PrRP receptor)	% of PrRP31, RC-4B/C rat pituitary cells (rat PrRP receptor)	% of PrRP31, GPR10 human receptor transfected in CHO cells [1]	Effect on food intake in mice (C57BL/6 mice)	Food intake in mice % of saline-treated group (C57BL/6 mice; 5 mg/kg SC, 45 min after injection)
CCCC[C@H](NC(=O)CNC(=O)[C@H](CCCNC(=N)N)NC(=O)[C@@H]1CCCN1C(=O)[C@H](Cc1ccc(O)cc1)NC(=O)[C@H](Cc1c[nH]c2ccccc12)NC(=O)[C@H](Cc1c[nH]cn1)NC(=O)[C@@H](NC(=O)[C@H](CC(=O)O)NC(=O)[C@H](C)NC(=O)[C@@H]1CCCN1C(=O)[C@H](CCCNC(=N)N)NC(=O)[C@H](CCC(N)=O)NC(=O)[C@H](Cc1c[nH]cn1)NC(=O)[C@@H](N)CO)[C@@H](C)O)C(=O)N[C@@H](Cc1ccccc1)C(=O)N1CCC[C@H]1C(=O)N[C@H](C(=O)N[C@H](C(=O)NCC(=O)N[C@@H](CCCNC(=N)N)C(=O)N[C@H](C(=O)N[C@H](C(=O)N[C@@H](C)C(=O)N[C@@H](CCCNC(=N)N)C(=O)N[C@@H](CC(N)=O)C(=O)NCC(=O)N[C@@H](CCC(=O)O)C(=O)N[C@H](C(=O)N[C@@H](CO)C(=O)N[C@@H](CCCNC(=N)N)C(N)=O)C(C)C)[C@@H](C)O)[C@@H](C)CC)[C@@H](C)CC)[C@@H](C)O [Analog 19] (H-SHQRPADTHWYPRG[Nle]FPTIGRITARNGEVSR-NH2)	very low binding affinity			no effect	
CCCCCCCCCCCCCC(=O)N[C@@H](CO)C(=O)N[C@@H](Cc1c[nH]cn1)C(=O)N[C@@H](CCC(N)=O)C(=O)N[C@@H](CCCNC(=N)N)C(=O)N1CCC[C@H]1C(=O)N[C@@H](C)C(=O)N[C@@H](CC(=O)O)C(=O)N[C@H](C(=O)N[C@@H](Cc1c[nH]cn1)C(=O)N[C@@H](Cc1c[nH]c2ccccc12)C(=O)N[C@@H](Cc1ccc(O)cc1)C(=O)N1CCC[C@H]1C(=O)N[C@@H](CCCNC(=N)N)C(=O)NCC(=O)N[C@@H](CCCC)C(=O)N[C@@H](Cc1ccccc1)C(=O)N1CCC[C@H]1C(=O)N[C@H](C(=O)N[C@H](C(=O)NCC(=O)N[C@@H](CCCNC(=N)N)C(=O)N[C@H](C(=O)N[C@H](C(=O)N[C@@H](C)C(=O)N[C@@H](CCCNC(=N)N)C(=O)N[C@@H](CC(N)=O)C(=O)NCC(=O)N[C@@H](CCC(=O)O)C(=O)N[C@H](C(=O)N[C@@H](CO)C(=O)N[C@@H](CCCNC(=N)N)C(N)=O)C(C)C)[C@@H](C)O)[C@@H](C)CC)[C@@H](C)CC)[C@@H](C)O)[C@@H](C)O [Analog 20] (Myristoyl-SHQRPADTHWYPRG[Nle]FPTIGRITARNGEVSR-NH2)	very low binding affinity			no effect	
CCCCCCCCCCCCCC(=O)N[C@H](Cc1ccccc1)C(=O)N[C@H](CCCNC(=N)N)C(=O)NCC(=O)N[C@H](C(=O)N1CCC[C@H]1C(=O)N[C@@H](CCCNC(=N)N)C(=O)N[C@H](C(=O)NCC(=O)N[C@@H](CCCNC(=N)N)C(=O)NCC(=O)N[C@H](C(=O)N[C@@H](Cc1ccc(O)cc1)C(=O)N[C@@H](Cc1c[nH]c2ccccc12)C(=O)N[C@@H](C)C(=O)N1CCC[C@H]1C(=O)N[C@@H](CC(N)=O)C(=O)N[C@H](C(=O)N[C@@H](CC(=O)O)C(=O)N1CCC[C@H]1C(=O)N[C@H](C(N)=O)[C@@H](C)O)[C@@H](C)CC)[C@@H](C)O)[C@@H](C)CC)C(C)C [Analog 26] (Myristoyl-[dF][dR]GVPRIGRGTYWAPNIDPT-NH2)	very low binding affinity	1.4%		no effect	100%
CCCC[C@H](N)C(=O)N[C@@H](CCC(=O)O)C(=O)N[C@H](C(=O)N[C@@H](CCCNC(=N)N)C(=O)N[C@H](C(=O)N1CCC[C@H]1C(=O)N[C@@H](CC(=O)O)C(=O)N[C@H](C(=O)N[C@@H](CC(N)=O)C(=O)N1CCC[C@H]1C(=O)N[C@@H](C)C(=O)N[C@@H](Cc1c[nH]c2ccccc12)C(=O)N[C@@H](Cc1ccc(O)cc1)C(=O)N[C@H](C(=O)NCC(=O)N[C@@H](CCCNC(=N)N)C(=O)NCC(=O)N[C@H](C(=O)N[C@@H](CCCNC(=N)N)C(=O)N1CCC[C@H]1C(=O)N[C@H](C(=O)NCC(=O)N[C@@H](CCCNC(=N)N)C(=O)N[C@@H](Cc1ccccc1)C(N)=O)C(C)C)[C@@H](C)CC)[C@@H](C)O)[C@@H](C)CC)[C@@H](C)O)[C@@H](C)O [Analog 35] (H-[Nle]ETRTPDINPAWYTGRGIRPVGRF-NH2)		168%	113%		
TPDINPAWYASRPFRPVGRF-NH2 [Analog 33]		230%	225%		
TPDINPAWYTGRGARPFGRF-NH2 [Analog 31]		0.8%	0.7%		

Further lines, with some results ahead:

Binding affinity (rat PrRP receptor)	% of PrRP31, RC-4B/C rat pituitary cells (rat PrRP receptor)	% of PrRP31, GPR10 human receptor transfected in CHO cells [1]	Compound	Effect on food intake in mice (C57BL/6 mice)	Food intake in mice % of saline-treated group (C57BL/6 mice; 5 mg/kg SC, 45 min after injection)
	1096%	71%	CCCCCCCCCCCCCC(=O)N[C@@H](CCCC)C(=O)N[C@@H](CCC(=O)O)C(=O)N[C@H](C(=O)N[C@@H](CCCNC(=N)N)C(=O)N[C@H](C(=O)N1CCC[C@H]1C(=O)N[C@@H](CC(=O)O)C(=O)N[C@H](C(=O)N[C@@H](CC(N)=O)C(=O)N1CCC[C@H]1C(=O)N[C@@H](C)C(=O)N[C@@H](Cc1c[nH]c2ccccc12)C(=O)N[C@@H](Cc1ccc(O)cc1)C(=O)N[C@H](C(=O)NCC(=O)N[C@@H](CCCNC(=N)N)C(=O)NCC(=O)N[C@H](C(=O)N[C@@H](CCCNC(=N)N)C(=O)N1CCC[C@H]1C(=O)N[C@H](C(=O)NCC(=O)N[C@@H](CCCNC(=N)N)C(=O)N[C@@H](Cc1ccccc1)C(N)=O)C(C)C)[C@@H](C)CC)[C@@H](C)O)[C@@H](C)CC)[C@@H](C)O)[C@@H](C)O [Analog 36] (Myristoyl-[Nle]ETRTPDINPAWYTGRGIRPVGRF-NH2)		
	1332%	56%	CCCCCCCCCCCCCC(=O)N[C@@H](CCC(N)=O)C(=O)N[C@@H](Cc1c[nH]cn1)C(=O)N[C@@H](CO)C(=O)N[C@@H](CCSC)C(=O)N[C@@H](CCC(=O)O)C(=O)N[C@H](C(=O)N[C@@H](CCCNC(=N)N)C(=O)N[C@H](C(=O)N1CCC[C@H]1C(=O)N[C@@H](CC(=O)O)C(=O)N[C@H](C(=O)N[C@@H](CC(N)=O)C(=O)N1CCC[C@H]1C(=O)N[C@@H](C)C(=O)N[C@@H](Cc1c[nH]c2ccccc12)C(=O)N[C@@H](Cc1ccc(O)cc1)C(=O)N[C@H](C(=O)NCC(=O)N[C@@H](CCCNC(=N)N)C(=O)NCC(=O)N[C@H](C(=O)N[C@@H](CCCNC(=N)N)C(=O)N1CCC[C@H]1C(=O)N[C@H](C(=O)NCC(=O)N[C@@H](CCCNC(=N)N)C(=O)N[C@@H](Cc1ccccc1)C(N)=O)C(C)C)[C@@H](C)CC)[C@@H](C)O)[C@@H](C)CC)[C@@H](C)O)[C@@H](C)O [Analog 38] (Myristoyl-QHSMETRTPDINPAWYTGRGIRPVGRF-NH2)		
	189%	66%	QHSMETRTPDINPAWYTGRGIRPVGRF-NH2 [Analog 37]		
